This note sets out measurements from patent publication US9624182B2, “Compounds as lysophosphatidic acid receptor antagonists” (Amira Pharmaceuticals, Inc., priority 2009, dated 2017).

SMILES strings stand for the structures. Where only a bound is given, the exact number is not on record here.

The test has as its target T1, human LPA1 (Homo sapiens, UniProt Q92633).
T1 construct: the full-length cDNA for human LPA1 was obtained by PCR of the reverse transcription reaction; expressed in transfected cells
The experiment in a line: LPA1 calcium flux assay. In kind it is cell-based. Particulars: CHO cells expressing human LPA1, stimulated with 10 nM LPA; read-out: HLPA1 Ca Flux IC50. As for the experimental part: A 1.1 kb cDNA encoding the human LPA1 receptor was cloned from human lung. Human lung RNA (Clontech Laboratories, Inc. USA) was reverse transcribed using the RETROscript kit (Ambion, Inc.) and the full-length cDNA for human LPA1 was obtained by PCR of the reverse transcription reaction. The nucleotide sequence of the cloned human LPA1 was determined by sequencing and confirmed to be identical to the published human LPA1 sequence (An et al. Biochenm. Biophys. Res. Commun. 231:619 (1997). The cDNA was cloned into the pCDNA5/FRT expression plasmid and transfected in CHO cells using lipofectamine 2000 (Invitrogen Corp., USA). Clones stably expressing human LPA1 were selected using hygromycin and identified as cells that show Ca-influx in response to LPA.
Human LPA1 or LPA3 expressing CHO cells are seeded at 20,000-45,000 cells per well in a 96-well poly-D-lysine coated plate one or two days before the assay. Prior to the assay, the cells are washed once with PBS and then cultured in serum-free media overnight. On the day of the assay, a calcium indicator dye (Calcium 4, Molecular Devices) in assay buffer (HBSS with Ca^2+ and Mg^2+ and containing 20 mM Hepes and 0.3% fatty-acid free human serum albumin) is added to each well and incubation continued for 1 hour at 37° C. 10 μl of test compounds in 2.5% DMSO are added to the cells and incubation continued at room temperature for 30 minutes. Cells are the stimulated by the addition of 10 nM LPA and intracellular Ca^2+ measured using the Flexstation 3 (Molecular Devices). IC50s are determined using Graphpad prism analysis of drug titration curves.

T1 sequence (Q92633 whole entry): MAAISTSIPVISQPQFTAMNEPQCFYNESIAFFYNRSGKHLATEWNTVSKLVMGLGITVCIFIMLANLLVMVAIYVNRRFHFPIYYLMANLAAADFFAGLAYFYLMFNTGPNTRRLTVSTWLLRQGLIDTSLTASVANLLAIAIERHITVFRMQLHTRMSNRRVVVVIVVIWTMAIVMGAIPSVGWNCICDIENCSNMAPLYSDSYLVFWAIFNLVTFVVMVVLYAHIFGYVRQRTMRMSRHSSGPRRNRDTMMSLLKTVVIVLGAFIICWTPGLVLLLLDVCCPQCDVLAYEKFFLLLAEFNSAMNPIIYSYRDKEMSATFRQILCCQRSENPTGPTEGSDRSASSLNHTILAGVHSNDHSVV

With `Cc1noc(-c2ccc(-c3ccc(C4(C(=O)O)CC4)cc3)cc2)c1NC(=O)C(C)Oc1ccccc1` (centres unmarked) [Compound 1-17, 1-{4′-[3-Methyl-4-(2-phenoxy-propionylamino)-isoxazol-5-yl]-biphenyl-4-yl}-cyclopropanecarboxylic acid], the IC50 fell in the range of 1000 to 50000 nM. Under `Cc1noc(-c2ccc(-c3ccc(C4(C(=O)O)CC4)cc3)cc2)c1NC(=O)NS(=O)(=O)c1ccccc1` [Compound 1-18, 1-{4′-[4-(3-Benzenesulfonyl-ureido)-3-methyl-isoxazol-5-yl]-biphenyl-4-yl}-cyclopropanecarboxylic acid] stands 1000 to 50000 nM. `Cc1noc(-c2ccc(-c3ccc(C4(C(=O)O)CC4)cc3)cc2)c1COC(=O)N[C@H](C)c1ccccc1` [Compound 1-19, 1-{4′-[3-Methyl-4-((R)-1-phenyl-ethylcarbamoyloxymethyl)-isoxazol-5-yl]-biphenyl-4-yl}-cyclopropanecarboxylic acid]: the IC50 was less than 300 nM.

In the case of `Cc1noc(-c2ccc(-c3ccc(C4(C(=O)O)CC4)cc3)cc2)c1COC(=O)NCc1ccccc1` [Compound 1-21, 1-[4′-(4-Benzylcarbamoyloxymethyl-3-methyl-isoxazol-5-yl)-biphenyl-4-yl]-cyclopropanecarboxylic acid], the IC50 was less than 300 nM.

With `Cc1noc(-c2ccc(-c3ccc(C4(C(=O)O)CC4)cc3)cc2)c1COC(=O)N[C@@H](C)c1ccccc1` [Compound 1-22, 1-{4′-[3-Methyl-4-((S)-1-phenyl-ethylcarbamoyloxymethyl)-isoxazol-5-yl]-biphenyl-4-yl}-cyclopropanecarboxylic acid], the IC50 fell in the range of 1000 to 50000 nM. Next, `Cc1noc(-c2ccc(-c3ccc(C4(C(=O)O)CC4)cc3)cc2)c1COC(=O)NC1CCCC1` [Compound 1-23, 1-[4′-(4-Cyclopentylcarbamoyloxymethyl-3-methyl-isoxazol-5-yl)-biphenyl-4-yl]-cyclopropanecarboxylic acid]: less than 300 nM; `Cc1noc(-c2ccc(-c3ccc(C4(C(=O)O)CC4)cc3)cc2)c1CNCC1CC1` [Compound 1-27, 1-(4′-{4-[(Cyclopropylmethyl-amino)-methyl]-3-methyl-isoxazol-5-yl}-biphenyl-4-yl)-cyclopropanecarboxylic acid]: 1000 to 50000 nM. Under `Cc1noc(-c2ccc(-c3ccc(C4(C(=O)O)CC4)cc3)cc2)c1CNCC1CCCCC1` [Compound 1-28, 1-(4′-{4-[(Cyclohexylmethyl-amino)-methyl]-3-methyl-isoxazol-5-yl}-biphenyl-4-yl)-cyclopropanecarboxylic acid] stands more than 50000 nM; under `Cc1noc(-c2ccc(-c3ccc(C4(C(=O)O)CC4)cc3)cc2)c1CNCc1ccccc1` [Compound 1-29, 1-{4′-[4-(Benzylamino-methyl)-3-methyl-isoxazol-5-yl]-biphenyl-4-yl}-cyclopropanecarboxylic acid], 1000 to 50000 nM; under `CC(=O)N(CCc1ccccc1)Cc1c(C)noc1-c1ccc(-c2ccc(C3(C(=O)O)CC3)cc2)cc1` [Compound 1-30, 1-(4′-{4-[(Acetyl-phenethyl-amino)-methyl]-3-methyl-isoxazol-5-yl}-biphenyl-4-yl)-cyclopropanecarboxylic acid], less than 300 nM.

Regarding `Cc1noc(-c2ccc(-c3ccc(C4(C(=O)O)CC4)cc3)cc2)c1C=CCCc1ccccc1` [Compound 1-31, 1-{4′-[3-Methyl-4-(4-phenyl-but-1-enyl)-isoxazol-5-yl]-biphenyl-4-yl}-cyclopropanecarboxylic acid], the IC50 is less than 300 nM. Next, `Cc1noc(-c2ccc(-c3ccc(C4(C(=O)O)CC4)cc3)cc2)c1CC(=O)NC(C)c1ccccc1` (centres unmarked) [Compound 1-33, 1-(4′-{3-Methyl-4-[(1-phenyl-ethylcarbamoyl)-methyl]-isoxazol-5-yl}-biphenyl-4-yl)-cyclopropanecarboxylic acid]: less than 300 nM; `Cc1noc(-c2ccc(-c3ccc(C4(C(=O)O)CC4)cc3)cc2)c1CCOCC1CC1` [Compound 1-35, 1-{4′-[4-(2-Cyclopropylmethoxy-ethyl)-3-methyl-isoxazol-5-yl]-biphenyl-4-yl}-cyclopropanecarboxylic acid]: less than 300 nM. For the molecule `Cc1noc(-c2ccc(-c3ccc(C4(C(=O)O)CC4)cc3)cc2)c1CCNC(=O)c1ccccc1` [Compound 1-36, 1-{4′-[4-(2-Benzoylamino-ethyl)-3-methyl-isoxazol-5-yl]-biphenyl-4-yl}-cyclopropanecarboxylic acid], the IC50 was in the range of 1000 to 50000 nM. Under `Cc1noc(-c2ccc(-c3ccc(C4(C(=O)O)CC4)cc3)cc2)c1CCN(Cc1ccccc1)Cc1ccccc1` [Compound 1-37, 1-{4′-[4-(2-Dibenzylamino-ethyl)-3-methyl-isoxazol-5-yl]-biphenyl-4-yl}-cyclopropanecarboxylic acid] stands 1000 to 50000 nM. Next, `Cc1noc(-c2ccc(-c3ccc(C4(C(=O)O)CC4)cc3)cc2)c1C(=O)NCCc1ccccc1` [Compound 1-38, 1-[4′-(3-Methyl-4-phenethylcarbamoyl-isoxazol-5-yl)-biphenyl-4-yl]-cyclopropanecarboxylic acid]: 1000 to 50000 nM; `Cc1noc(-c2ccc(-c3ccc(C4(C(=O)O)CC4)cc3)cc2)c1CCC(=O)NC1CC1` [Compound 1-39, 1-{4′-[4-(2-Cyclopropylcarbamoyl-ethyl)-3-methyl-isoxazol-5-yl]-biphenyl-4-yl}-cyclopropanecarboxylic acid]: 1000 to 50000 nM. Under `Cc1noc(-c2ccc(-c3ccc(C4(C(=O)O)CC4)cc3)cc2)c1CCC(=O)NCC1CC1` [Compound 1-40, 1-(4′-{4-[2-(Cyclopropylmethyl-carbamoyl)-ethyl]-3-methyl-isoxazol-5-yl}-biphenyl-4-yl)-cyclopropanecarboxylic acid] stands 1000 to 50000 nM; under `Cc1noc(-c2ccc(-c3ccc(C4(C(=O)O)CC4)cc3)cc2)c1CCC(=O)N1CCCC1` [Compound 1-41, 1-{4′-[3-Methyl-4-(3-oxo-3-pyrrolidin-1-yl-propyl)-isoxazol-5-yl]-biphenyl-4-yl}-cyclopropanecarboxylic acid], 1000 to 50000 nM; under `Cc1noc(-c2ccc(-c3ccc(C4(C(=O)O)CC4)cc3)cc2)c1CCC(=O)NCc1ccccc1` [Compound 1-42, 1-{4′-[4-(2-Benzylcarbamoyl-ethyl)-3-methyl-isoxazol-5-yl]-biphenyl-4-yl}-cyclopropanecarboxylic acid], 1000 to 50000 nM. Take `Cc1noc(-c2ccc(-c3ccc(C4(C(=O)O)CC4)cc3)cc2)c1CCC(=O)Nc1ccccc1` [Compound 1-43, 1-{4′-[3-Methyl-4-(2-phenylcarbamoyl-ethyl)-isoxazol-5-yl]-biphenyl-4-yl}-cyclopropanecarboxylic acid]: the concentration for half-maximal inhibition (IC50) is more than 50000 nM.

Consider `Cc1noc(-c2ccc(-c3ccc(C4(C(=O)O)CC4)cc3)cc2)c1CCC(=O)N(C)Cc1ccccc1F` [Compound 1-44, 1-[4′-(4-{2-[(2-Fluoro-benzyl)-methyl-carbamoyl]-ethyl}-3-methyl-isoxazol-5-yl)-biphenyl-4-yl]-cyclopropanecarboxylic acid], for which the half-maximal inhibitory concentration (IC50) is less than 300 nM.

Regarding `Cc1noc(-c2ccc(-c3ccc(C4(C(=O)O)CC4)cc3)cc2)c1COCc1ccccc1` [Compound 1-45, 1-[4′-(4-Benzyloxymethyl-3-methyl-isoxazol-5-yl)-biphenyl-4-yl]-cyclopropanecarboxylic acid], the IC50 lay in the range of 1000 to 50000 nM. Next, `Cc1noc(-c2ccc(-c3ccc(C4(C(=O)O)CC4)cc3)cc2)c1COCc1ccccc1Cl` [Compound 1-46, 1-{4′-[4-(2-Chloro-benzyloxymethyl)-3-methyl-isoxazol-5-yl]-biphenyl-4-yl}-cyclopropanecarboxylic acid]: 1000 to 50000 nM; `Cc1noc(-c2ccc(-c3ccc(C4(C(=O)O)CC4)cc3)cc2)c1COC(C)c1ccccc1` (centres unmarked) [Compound 1-47, 1-{4′-[3-Methyl-4-(1-phenyl-ethoxymethyl)-isoxazol-5-yl]-biphenyl-4-yl}-cyclopropanecarboxylic acid]: 1000 to 50000 nM; `Cc1noc(-c2ccc(-c3ccc(C4(C(=O)O)CC4)cc3)cc2)c1CSCc1ccccc1` [Compound 1-50, 1-[4′-(4-Benzylsulfanylmethyl-3-methyl-isoxazol-5-yl)-biphenyl-4-yl]-cyclopropanecarboxylic acid]: 1000 to 50000 nM. Under `Cc1noc(-c2ccc(-c3ccc(C4(C(=O)O)CC4)cc3)cc2)c1C[S+]([O-])Cc1ccccc1` (centres unmarked) [Compound 1-52, 1-[4′-(3-Methyl-4-phenylmethanesulfinylmethyl-isoxazol-5-yl)-biphenyl-4-yl]-cyclopropanecarboxylic acid] stands more than 50000 nM.

As to `Cc1noc(-c2ccc(-c3ccc(C4(C(=O)O)CC4)cc3)cc2)c1CS(=O)(=O)Cc1ccccc1` [Compound 1-53, 1-[4′-(3-Methyl-4-phenylmethanesulfonylmethyl-isoxazol-5-yl)-biphenyl-4-yl]-cyclopropanecarboxylic acid], the IC50 fell in the range of 1000 to 50000 nM.

Consider `Cc1noc(-c2ccc(-c3ccc(C4(C(=O)O)CC4)cc3)cc2)c1C[S+]([O-])CCc1ccccc1` (centres unmarked) [Compound 1-54, 1-{4′-[3-Methyl-4-(2-phenyl-ethanesulfinylmethyl)-isoxazol-5-yl]-biphenyl-4-yl}-cyclopropanecarboxylic acid], for which the IC50 was less than 300 nM.
